Legend:
[1] = test system: RNA Polymerase II Serine 5 phosphorylation in A549 cells overexpressing CDK7-mutant (C312S); assay: Imaging-based cellular RNA PolII Ser5 phosphorylation assay in A549 cells overexpressing CDK7-mutant (C312S); format: cell-based, human; details: RNA PolII Ser5 phosphorylation, averaged over all measurements; for IC50: Homo sapiens, A549, A549 cells overexpressing CDK7-mutant (C312S), read-out: CDK7_A549 mutant hCDK7(pIC50) (converted); for CDK7_A549 mutant hCDK7(pIC50): A549 cells overexpressing CDK7-mutant (C312S)
Text: (§1) To evaluate inhibition of CDK7 kinase activity, a 384-well automated imaging assay was used. This assay detects Serine 5 phosphorylation on a unique heptapeptide sequence in the C-terminal domain of Rpb1 subunit of RNA polymerase II, the downstream substrate of CDK7. This heptapeptide sequence is repeated up to 52 times in the CTD of Rpb1.
(§2) A549 adenocarcinoma human alveolar basal epithelial cells (ATCC, CCL-185), rabbit Phospho-Rpb1 CTD (Ser5) antibody (D9N51 (Cell Signaling Technology)), DMEM (Sigma), Fetal Bovine Serum (Biowest), L-glutamine (Sigma), Penicillin/Streptomycin (Life Technologies), Sodium Pyruvate (Sigma), Hepes (Sigma), poly-D-lysine coated μclear 384 black plates (Greiner), formaldehyde (PolySciences), D-PBS (Sigma), Methanol (Sigma), Alexa Fluor 488 goat anti rabbit IgG secondary antibody (Life Technologies), HCS CellMask™ Deep Red stain (Life Technologies), Hoechst 33258 (Invitrogen).
(§3) RNA Polymerase II Serine 5 phosphorylation was detected using a specific rabbit Phospho-Rpb1 CTD (Ser5) antibody. A549 adenocarcinoma human alveolar basal epithelial cells were seeded in 20 μl medium (DMEM supplemented with 1% Fetal Bovine Serum (heat inactivated 30′ 56° C.), 2 mM L-glutamine, 50 U/ml penicillin 50 μg/ml streptomycin, 1 mM sodium pyruvate and 50 mM hepes) at 1000 cells/well and cultured in poly-D-lysine coated μclear 384 black plates for 20 hours at 37° C. and 5% CO2.
(§4) After incubation cells were challenged with compound for 3 hours at 37° C. and 5% CO2. DMSO was used as high control and as low control 10 μM of the following reference compound was used:
(§5) 40 nl of test compounds and controls were spotted in cell plates using Echo Liquid Handler (Echo 550, Labcyte). Incubation was followed by 20 minutes fixation with 20 μl 10% formaldehyde at room temperature. Medium/formaldehyde solution was removed, plates were washed 3 times with 30 μl D-PBS (w/o Ca^2+ and Ma^2+) and permeabilization was done by adding 20 μl ice cold methanol for 20 minutes. Cells were washed again 3 times with 30 μl D-PBS and 20 μl blocking buffer (25 ml fetal bovine serum in 500 ml D-PBS) was added for 1 hour.
(§6) After removing blocking buffer 20 μl 1/1000 primary antibody rabbit Phospho-Rpb1 CTD (Ser5) antibody was added which binds to the phosphorylated Serine5 of the heptapeptide sequences in the CTD of Rpb1. Primary antibody was removed, and plates were washed 3 times with 30 μl D-PBS followed by addition of 20 μl 1/2000 Alexa Fluor 488 goat anti rabbit IgG secondary antibody for final detection of Phospho-Rpb1 CTD (Ser5) together with 1/5000 HCS CellMask™ Deep Red stain for membrane staining and 1/5000 Hoechst 33258 for nucleus staining. Last, plates were washed 2 times with 30 μl D-PBS and wells were filled with 40 μL D-PBS, plates were sealed (Thermowell sealing tape) and stored at 4° C. until reading. Plates were read with Opera Phenix (Perkin Elmer) with 10× air objective. Data were calculated and analyzed in Phaedra.
(§7) IC50 values were calculated using the following formula: […]
(§8) Average value of all HC's and all LC's are used for normalizations.
(§9) A best-fit curve is fitted by a minimum sum of squares method to the plot of % Control vs. compound concentration. From this an IC50 value can be obtained. An estimate of the slope of the plot in terms of the Hill coefficient is also obtained.
In parallel this assay was performed in A549 cells overexpressing CDK7-mutant (C312S) to evaluate the effect of the covalent bond on potency and to screen for potential off-target effects. Mutation of Cysteine to Serine (C312S), a less nucleophilic amino acid, prevents CDK7 inhibitors from covalently binding to CDK7 and from inhibiting CDK7 activity in an irreversible manner. A stably transduced A549 cell pool was generated that overexpresses CDK7 mutant (C312S), but also expresses endogenous CDK7-WT. Covalent binders targeting the cysteine at position 312 will show a shift in potency in A549 cells overexpressing mutant C312S CDK7.

[2] = test system: RNA Polymerase II Serine 5 phosphorylation (Rpb1 CTD, downstream substrate of CDK7) in A549 cells; assay: Imaging-based cellular RNA PolII Ser5 phosphorylation assay in A549 cells; format: cell-based, human; details: wild-type CDK7, RNA PolII Ser5 phosphorylation, averaged over all measurements; for IC50: Homo sapiens, A549, A549 cells, read-out: CDK7_A549 Wild-type CDK7 (pIC50) (converted); for CDK7_A549 Wild-type CDK7 (pIC50): A549 cells
Text: as §1, §2, §3, §4, §5, §6, §7, §8, §9

| IC50 [1] | IC50 [2] | CDK7_A549 mutant hCDK7(pIC50) [1] | CDK7_A549 Wild-type CDK7 (pIC50) [2] | Compound |
| --- | --- | --- | --- | --- |
| > 10 µM | 0.126 µM | – | – | C=CC(=O)N1CC(c2nc(C)c(-c3cc4c(c(C)n3)OCc3c(N5CCOCC5)ccnc3N4)c(C)n2)C1 [Compound 280] |
| > 10 µM | > 10 µM | – | – | C=C(C)C(=O)N1CC[C@@H](N2CCC(c3cc4c(c(C)n3)OCc3c(-c5cnn(C)c5)ccnc3N4)CC2)C1 (single isomer, unassigned) [Compound 311] |
| > 10 µM | 0.12 µM | – | – | CC#CC(=O)N1CC(N2CCC(c3cc4c(c(C#N)n3)O[C@@H](C)c3c(N5CCOCC5)ccnc3N4)CC2)C1 (single isomer, unassigned) [Compound 485] |
| > 10 µM | 0.933 µM | – | – | C=CC(=O)N1CCC(N2CC(c3cc4c(c(C)n3)O[C@@H](C)c3c(N5CCOCC5)ccnc3N4)C2)CC1 (single isomer, unassigned) [Compound 430] |
| – | – | <5 | 5.03 | CC#CC(=O)N1CC(N2CCC(c3cc4c(c(C)n3)O[C@H](C)c3c(N5CCOCC5)ccnc3N4)CC2)C1 (single isomer, unassigned) [Compound 524] |
| > 10 µM | 0.102 µM | – | – | C=CC(=O)N1CC[C@H](N2CCC(c3cc4c(c(C)n3)OCc3c(-c5cnn(C)c5)ccnc3N4)CC2)C1 (single isomer, unassigned) [Compound 293] |
| 3.09 µM | 0.191 µM | – | – | CC#CC(=O)N1CCC(N2CC[C@H](c3cc4c(c(C)n3)OCc3c(N5CCOCC5)ccnc3N4)C2)CC1 (single isomer, unassigned) [Compound 438] |
| > 10 µM | 0.1 µM | – | – | C#Cc1cc2c(cc1C1CCN(C3CN(C(=O)C=C)C3)CC1)Nc1nccc(N3CCOCC3)c1[C@H](C)O2 (single isomer, unassigned) [Compound 209] |
| 2.82 µM | 0.117 µM | – | – | CC#CC(=O)N1CCC(N2CC(c3cc4c(c(C#N)n3)O[C@@H](C)c3c(N5CCOCC5)ccnc3N4)C2)CC1 (single isomer, unassigned) [Compound 545] |
| > 10 µM | > 10 µM | – | – | CC#CC(=O)N1CC(N2CC[C@H](c3cc4c(c(C)n3)O[C@@H](C)c3c(N5CCOCC5)ccnc3N4)C2)C1 (single isomer, unassigned) [Compound 395] |
| > 10 µM | 2.75 µM | – | – | CC#CC(=O)N1CCC(N2CC(c3nc(C)c4c(n3)Nc3nccc(N5CCOCC5)c3[C@@H](C)O4)C2)CC1 [Compound 546] |
| 8.32 µM | 0.209 µM | – | – | CC#CC(=O)N1CC(N2CC[C@H](c3cc4c(c(C)n3)OCc3c(N5CCOCC5)ccnc3N4)N(C)CC2)C1 (single isomer, unassigned) [Compound 448] |
| > 10 µM | 0.0589 µM | – | – | C=CC(=O)N1CC(N2CCC(c3cc(C)c4c(c3)Nc3nccc(N5CCOCC5)c3CO4)CC2)C1 [Compound 20] |
| > 10 µM | ~10 µM | – | – | C/C=C/C(=O)N1CC[C@@H](N2CCC(c3cc4c(c(C)n3)OCc3c(-c5cnn(C)c5)ccnc3N4)CC2)C1 (single isomer, unassigned) [Compound 302] |
| > 10 µM | 0.195 µM | – | – | CC#CC(=O)N1CC(N2CCC(c3cc4c(c(C)n3)OCc3c(-c5cnn(C)c5)ccnc3N4)CC2)C1 [Compound 276] |
| 6.17 µM | 0.0398 µM | – | – | CC#CC(=O)N1CCC(N2CC(c3cc4c(c(C)n3)O[C@H](C)c3c(N5CCOCC5)ccnc3N4)C2)CC1 (single isomer, unassigned) [Compound 358] |
| > 10 µM | – | – | 6.36 | CC#CC(=O)N1CC[C@@H](N2CC(c3cc4c(c(C)n3)O[C@H](C)c3c(N5CCOCC5)ccnc3N4)C2)C1 (single isomer, unassigned) [Compound 513] |

| IC50 [1] | IC50 [2] | CDK7_A549 mutant hCDK7(pIC50) [1] | CDK7_A549 Wild-type CDK7 (pIC50) [2] | Compound |
| --- | --- | --- | --- | --- |
| > 10 µM | 6.61 µM | – | – | C=CC(=O)N1CCC(N2CC(c3ccc4c(c3C)Nc3nccc(C5CCOCC5)c3CO4)C2)CC1 [Compound 131] |
| > 10 µM | 0.1 µM | – | – | C#CCCN(C)C/C=C/C(=O)N1CC(N2CCC(c3ccc4c(c3)Nc3nccc(C5CCOCC5)c3[C@@H](C)O4)CC2)C1 (single isomer, unassigned) [Compound 186] |
| > 10 µM | 2.19 µM | – | – | CC#CC(=O)N1CC(N2CCC(c3cc4c(c(C)n3)O[C@@H](C)c3c(N5CCOCC5)ccnc3N4)CC2)C1 (single isomer, unassigned) [Compound 371] |
| > 10 µM | 0.575 µM | – | – | C=CC(=O)N1CC[C@@H](N2CC(c3cc4c(c(C#N)n3)OCc3c(N5CCOCC5)ccnc3N4)C2)C1 (single isomer, unassigned) [Compound 474] |
| > 10 µM | 8.51 µM | – | – | C#Cc1cc2c(cc1C1CCN(C3CN(C(=O)C=C)C3)CC1)Nc1nccc(N3CCOCC3)c1[C@@H](C)O2 (single isomer, unassigned) [Compound 210] |
| > 10 µM | 9.77 µM | – | – | CC#CC(=O)N1CCC(n2ccc(-c3ccc4c(c3)OCc3c(N5CCOCC5)ccnc3N4)cc2=O)CC1 [Compound 412] |
| > 10 µM | 0.129 µM | – | – | C#CCCN(C)C/C=C/C(=O)N1CC(N2CCC(c3ccc4c(c3)Nc3nccc(N5CCOCC5)c3[C@H](C)O4)CC2)C1 (single isomer, unassigned) [Compound 195] |
| > 10 µM | 4.07 µM | – | – | C#CCCN(C)C/C=C/C(=O)N1CC(N2CCC(c3ccc4c(c3)Nc3nccc(C5CCOCC5)c3[C@H](C)O4)CC2)C1 (single isomer, unassigned) [Compound 187] |
| > 10 µM | > 10 µM | – | – | C=C(C)C(=O)N1CC[C@H](N2CCC(c3cc4c(c(C)n3)OCc3c(-c5cnn(C)c5)ccnc3N4)CC2)C1 (single isomer, unassigned) [Compound 312] |
| – | – | <5 | 7.34 | C=CC(=O)N1CC(N2CCC(c3cc(C)c4c(c3)Nc3nccc(N5CCOCC5)c3CO4)CC2)C1 [Compound 21] |
| 8.91 µM | ~0.0115 µM | – | – | CC#CC(=O)N1CC[C@@H](N2CC(c3cc4c(c(C)n3)O[C@@H](C)c3c(N5CCOCC5)ccnc3N4)C2)C1 (single isomer, unassigned) [Compound 515] |
| > 10 µM | 0.0891 µM | – | – | CC#CC(=O)N1CC(N2CCC(c3cc4c(c(C)n3)O[C@H](C)c3c(C5CCOCC5)ccnc3N4)CC2)C1 (single isomer, unassigned) [Compound 405] |
| > 10 µM | 1.78 µM | – | – | CC#CC(=O)N1CC(n2cc(-c3cc(C#N)c4c(c3)Nc3nccc(N5CCOCC5)c3[C@@H](C)O4)cn2)C1 (single isomer, unassigned) [Compound 450] |
| > 10 µM | > 10 µM | – | – | CC#CC(=O)N1CCC(N2CC(c3nc(C)c4c(n3)Nc3nccc(N5CCOCC5)c3[C@H](C)O4)C2)CC1 [Compound 547] |
| > 10 µM | 3.02 µM | – | – | CC#CC(=O)N1CC(N2CCC(c3cc4c(c(C#N)n3)O[C@H](C)c3c(N5CCOCC5)ccnc3N4)CC2)C1 (single isomer, unassigned) [Compound 481] |
| > 10 µM | 0.0813 µM | – | – | C=CC(=O)N1CC[C@H](N2CCC(c3cc4c(c(C)n3)OCc3c(-c5cnn(C)c5)ccnc3N4)CC2)C1 (single isomer, unassigned) [Compound 185] |
